{"source": "patent US20250066727A1", "about": "“COMPOSITIONS AND METHODS FOR CULTURING STEM CELLS” (Beijing TheraXyte BioScience Co. Ltd., priority 2021, published 2025)", "format_in_all_cases": "cell-based", "key": {"[1]": {"tested_on": "adult KSCs", "test": "Calcium concentration function assay in KSFX-free basal medium", "description": "(§1) For long-term proliferation assay, cells were continuously passaged on the 6-well cell culture plate. For each passage, 2×10^5 viable cells were plated and then cultured for about 5 days, when the cells were ˜90% confluent, cells were passaged and the cell number as well as the viability with the cell counter were recorded. Microscopy was performed with Eclipse TS100 (Nikon).\nThe effect of calcium concentrations in the KSFX-free basal medium on the proliferation and differentiation of adult KSCs were tested. Cells were cultured in different concentrations of calcium, including 0 mM, 0.05 mM, 0.15 mM, 0.5 mM, and 1.5 mM for 10 passages. As shown in FIG. 8 and FIG. 9A, withdraw of calcium led to the growth stop of adult KSCs after 3 passages."}, "[2]": {"tested_on": "adult KSCs", "test": "Growth supplement function assay (EdU / p63)", "details": "24 hours; for concentration that could promote adult KSCs proliferation (EdU/p63 ratio): added to KSFX-free basal medium", "description": "For the EdU (5-ethynyl-2′-deoxyuridine) assay, 5×10^3 cells were plated to a well of the 96-well cell culture plate and cultured for overnight. On the second day, the cells were treated with 10 μM EdU for 3 hours at 37° C. The cells were washed with PBS and then fixed with 4% formaldehyde for 30 min at RT. The cells were washed with PBS and then permeabilized with 0.1% Triton for 20 min at RT. The cells were washed with PBS and then labeled with freshly prepared EdU labeling buffer containing 5 μM of Sulfo-Cyanine 3 azide, 4 mM of Copper(II) sulfate pentahydrate, 2 mg/mL of Sodium L-ascorbate in PBS for 30 min at RT. The cells were washed with PBS and labeled with Hoechst if needed. Finally, the plate was scanned and analyzed by Celllnsight CX5 HCA reader.\nCells were washed with PBS once and then fixed with 4% formaldehyde for 30 min at room temperature (RT). The cells were washed with PBS and then permeabilized with 0.1% Triton for 20 min at RT The cells were washed with PBS and then blocked with 3% BSA for 1 hr at RT. Then the cells were incubated with primary antibodies such as anti-KRT14, or anti-p63 overnight at 4° C. The cells were washed with PBS and labeled with the secondary antibody such as Goat anti-Mouse Alexa Fluor 488, Goat anti-Rabbit Alexa Fluor 647, and Hoechst if needed. Finally, the plate was scanned and analyzed by CellInsight CX5 HCA reader. Microscopy was captured with Confocal Microscope A1 HD25.\nDifferent concentrations of each factor were added to the KSFX-free basal medium and the adult KSCs were cultured for 24 hours. Then cells were labeled with EdU as well as the KSCs marker p63. The ratio of EdU/p63 indicates the proliferation rate of KSCs, and the p63 count indicates the total cell number which is a result of cell proliferation and cell death."}, "[3]": {"tested_on": "adult KSCs", "test": "Coating matrix function assay: attachment and spreading of adult KSCs in KSFX-free basal medium", "description": "Coating Matrix Preparation—Coating matrix such as Collagen I, Poly-D-Lysine (PDL), Matrigel, rh-Fibronectin, and rh-Laminin 521 were prepared according to the instructions of the manufacture (Table 1). Briefly, for one well of the 6-well cell culture plate, 1 mL of the working solution was added to the surface of the well and the plate was incubated at the recommended condition. Then the well was washed once with 1 mL of PBS and ready to be used.\nThe keratinocyte stem cells (KSCs) were isolated from donated foreskin or fetal skin tissue. Briefly, the skin tissue was cleaned up with 70% ethanol and washed several times with PBS containing antibiotics. The tissue in PBS was collected, trimmed away any fat and loose fascia, and cut into strips approximately 0.5 cm×1.5 cm. The tissue was submerged in dispase and treated overnight at 4° C. The epidermis was then separated from the dermis and washed with PBS several times. All the epidermis was collected into one tube containing the TrypLE and incubated for 30 minutes at 37° C. Enough PBS was added to neutralize the TrypLE and the solution was pipetted up and down to suspend the cells. The cell suspension was passed through a 70 μm cell strainer, and then the cells were pelleted by centrifugation at 300 g for 10 minutes. The cell pellet was resuspended in culture medium and the concentration of the viable cells/mL was determined. 2×10^4 viable epidermal cells/cm^2 was plated on culture flask treated with coating matrix, and then the flask was incubated in a 37° C., 95% air/5% CO2 saturated humidity chamber. The culture medium was changed every 48 hours. Once the cultures were ˜80% confluent, the cells were subcultured and/or cryopreserved using a freezing medium. For subculture, cells were washed once by PBS then treated with TrypLE for no more than 6 min at 37° C. PBS was added to neutralize the TrypLE, and then the tube was centrifuged at 300 g for 10 min. New flasks were seeded at 1-2×10^4 cells/cm^2.\nThe function of each coating matrix listed in Table 1 was tested for the attachment and spreading of adult KSCs. […]"}, "[4]": {"tested_on": "adult KSCs", "test": "Long-term proliferation of adult KSCs on coating matrix in KSFX-free basal medium", "details": "5 passages", "description": "as §1\nFurther, the proliferation functions of FN, COLI, and LN was also tested in the KSFX-free basal medium. Adult KSCs were continuously passaged and the population doubling (PD) curves were calculated."}, "[5]": {"details": "1.5 mM calcium, KSFX-free basal medium"}}, "data": [{"molecule": "[Ca+2]", "note": "[calcium]", "values": [{"measurement": "passages after which adult KSCs stopped growing", "setting": "[1]; 0 mM calcium (withdraw of calcium), KSFX-free basal medium", "result": 3, "unit": "passages"}, {"measurement": "proliferation rate of adult KSCs", "setting": "[1]; 0.05 mM calcium, later passages", "result": "started to grow slower later"}, {"measurement": "proliferation of adult KSCs", "setting": "[1]; 0.5 mM calcium, KSFX-free basal medium", "result": "could proliferate longer, with more cell-to-cell connections"}, {"measurement": "differentiation of adult KSCs", "setting": "[1]; [5]", "result": "most of cells had differentiated with the collapsed nucleus"}, {"measurement": "passages after which adult KSCs stopped growing", "setting": "[1]; [5]", "result": 5, "unit": "passages"}, {"measurement": "calcium concentration that can better support the long-term expansion of adult KSCs", "setting": "[1]; KSFX-free basal medium, 10 passages", "result": "0.1 to 1.0", "unit": "mM"}]}, {"molecule": "Cc1cccc(-c2nn(C(=S)Nc3ccccc3)cc2-c2ccnc3ccccc23)n1", "note": "[A 83-01]", "values": [{"measurement": "concentration that could promote adult KSCs proliferation (EdU/p63 ratio)", "setting": "[2]", "result": "at least 0.5 μM"}]}, {"molecule": "COLI: Collagen I coating matrix, extracted from rat tail, 50 μg/mL", "values": [{"measurement": "attachment and spreading of adult KSCs", "setting": "[3]; after 30 min of culturing, bright-field microscopy", "result": "attached to the plate and spread with a flatten morphology"}, {"measurement": "attachment and spreading of adult KSCs", "setting": "[3]; after 2 hours of culturing", "result": "fully spread"}, {"measurement": "attachment/spreading function, comparison among the coating matrix tested", "setting": "[3]; overall", "result": "performed better functions compared with MAT and PDL"}, {"measurement": "long-term expansion of adult KSCs in vitro", "setting": "[4]", "result": "supported the long-term expansion of adult KSCs in vitro"}, {"measurement": "proliferation of adult KSCs (population doubling) compared with blank", "setting": "[4]; continuously passaged", "result": "could promote the proliferation of adult KSCs"}]}, {"molecule": "C[C@@H](N)[C@H]1CC[C@H](C(=O)Nc2ccncc2)CC1", "note": "[Y-27632]", "values": [{"measurement": "concentration that could promote adult KSCs proliferation (EdU/p63 ratio)", "setting": "[2]", "result": "at least 1 μM"}, {"measurement": "change of the total cell number (p63 count) compared with the blank", "setting": "[2]; at least 1 μM (such as 1-10 μM), KSFX-free basal medium", "result": "two-fold change"}]}]}
